In ChEMBL document CHEMBL1147808, “Protein tyrosine phosphatase 1B inhibitory activity of triterpenes isolated from Astilbe koreana” (Bioorg Med Chem Lett, 2006):

These molecules were tested against T1, Tyrosine-protein phosphatase non-receptor type 1 (Homo sapiens, UniProt P18031) (assay: Inhibition of human recombinant PTP1B).
T1 sequence (P18031 whole entry): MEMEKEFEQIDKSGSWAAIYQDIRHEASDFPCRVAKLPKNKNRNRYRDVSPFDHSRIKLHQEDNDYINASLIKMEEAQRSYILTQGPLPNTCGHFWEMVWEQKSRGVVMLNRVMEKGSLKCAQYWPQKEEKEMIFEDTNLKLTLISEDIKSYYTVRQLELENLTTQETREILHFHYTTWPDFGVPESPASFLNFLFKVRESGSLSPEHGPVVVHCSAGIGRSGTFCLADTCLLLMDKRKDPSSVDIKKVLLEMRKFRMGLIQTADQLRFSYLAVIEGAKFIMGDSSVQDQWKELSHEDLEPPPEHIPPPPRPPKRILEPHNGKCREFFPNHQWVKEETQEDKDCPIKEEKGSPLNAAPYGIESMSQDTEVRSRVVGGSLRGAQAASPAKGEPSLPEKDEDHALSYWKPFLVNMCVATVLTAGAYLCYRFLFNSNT

Q: With `CC1(C)CC[C@]2(C)CC[C@]3(C(=O)O)C(=CC[C@@H]4[C@@]5(C)CCC(=O)C(C)(C)[C@@H]5CC[C@]43C)[C@@H]2C1` as the molecule, how does the IC50 read?
A: 6.8 µM

Q: How did the IC50 turn out when `CC1(C)CC[C@]2(C)CC[C@]3(C(=O)O)C(=CC[C@@H]4[C@@]5(C)CC[C@@H](O)[C@](C)(CO)C5CC[C@]43C)[C@@H]2C1` (some centres undefined) was run?
A: 11.7 µM

Q: With `CC1(C)CC[C@]2(C)CC[C@]3(C(=O)O)C(=CC[C@@H]4[C@@]5(C)CC[C@H](O)C(C)(C)C5[C@H](O)C[C@]43C)[C@@H]2C1` (some centres undefined) as the molecule, how does the IC50 read?
A: 12.8 µM

Q: Which IC50 does the source give for `CC(=O)O[C@H]1CC[C@@]2(C)C(CC[C@]3(C)[C@@H]2CC=C2[C@@H]4CC(C)(C)CC[C@]4(C)CC[C@]23C(=O)O)C1(C)C` (some centres undefined) here?
A: 8.5 µM

Q: `COC(=O)[C@@]12CCC3C(=CC[C@H]4[C@@]3(C)CCC3C(C)(C)[C@@H](O)CC[C@@]34C)[C@@H]1CC(C)(C)CC2` (some centres undefined) was tested. Which IC50 did it give?
A: 14.2 µM

Q: With `CC1(C)CC[C@]2(C)CC[C@]3(C(=O)O)C(=CC[C@@H]4[C@@]5(C)CC[C@H](O)C(C)(C)C5CC[C@]43C)[C@@H]2C1` (some centres undefined) as the molecule, how does the IC50 read?
A: 5.2 µM

Q: With `CC1(C)[C@@H](O[C@H]2O[C@H](C(=O)O)[C@@H](O)[C@H](O)[C@H]2O[C@@H]2O[C@H](C(=O)O)[C@@H](O)[C@H](O)[C@H]2O)CC[C@]2(C)[C@H]3C(=O)C=C4[C@@H]5C[C@@](C)(C(=O)O)CC[C@]5(C)CC[C@@]4(C)[C@]3(C)CC[C@@H]12` [GLYCYRRHIZIN] as the molecule, how does the IC50 read?
A: > 100 µM

Q: How did the IC50 turn out when `COC(=O)[C@@]12CC[C@@]3(C)CCC(C)(C)C[C@H]3C1=CC[C@@H]1[C@@]3(C)CC[C@H](O)C(C)(C)C3CC[C@]12C` (some centres undefined) was run?
A: 16 µM

Q: For `C[C@H]1[C@H](C)CC[C@]2(C)CC[C@]3(C(=O)O)C(=CC[C@@H]4[C@@]5(C)CC[C@H](O)C(C)(C)C5CC[C@]43C)[C@H]12` (some centres undefined), which IC50 is on record?
A: 4.9 µM
